The molecules below were run against T1, T. cruzi CYP51 (Trypanosoma cruzi, UniProt Q7Z1V1) (assay: HTS spectral-mode binding screen, type II difference spectra scored 0-5). Details: spectral mode, four serial dilutions 2 µM to 12.5 µM, 2 µM CYP51.
T1 construct: had the first 21 residues upstream of K22 replaced with the fragment MAKKKKK; His6 (C); made in house
T1 sequence (Q7Z1V1 15-481, looked up, natural form): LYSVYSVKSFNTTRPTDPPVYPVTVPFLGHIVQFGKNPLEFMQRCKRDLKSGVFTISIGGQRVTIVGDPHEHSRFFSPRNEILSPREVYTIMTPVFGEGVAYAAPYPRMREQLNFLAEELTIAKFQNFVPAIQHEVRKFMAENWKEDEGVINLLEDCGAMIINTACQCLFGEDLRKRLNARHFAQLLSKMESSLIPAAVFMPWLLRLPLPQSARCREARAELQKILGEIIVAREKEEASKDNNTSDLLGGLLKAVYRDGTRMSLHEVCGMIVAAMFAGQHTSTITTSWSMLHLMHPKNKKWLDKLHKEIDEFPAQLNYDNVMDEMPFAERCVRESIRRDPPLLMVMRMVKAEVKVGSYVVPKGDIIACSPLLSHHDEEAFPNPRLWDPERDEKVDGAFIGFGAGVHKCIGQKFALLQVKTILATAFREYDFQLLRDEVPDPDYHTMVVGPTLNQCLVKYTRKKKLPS
Cc1sc(NC(=O)c2ccco2)c(C(c2cccnc2)N2CCN(CCO)CC2)c1C (stereo not shown) [Compound 168] gave an HTS binding score of 4.
N#Cc1nc(COc2ccccc2)oc1NCCCn1ccnc1 [Compound 81] was tested, and the HTS binding score was 4.
COc1cc(OC)cc(-c2cc3nc(C)c(CCC(=O)NCc4cccnc4)c(C)n3n2)c1 [Compound 171] showed an HTS binding score of 5.
CCc1nc(SCc2cccnc2)c(C#N)c(C(F)(F)F)c1C [Compound 97] gave an HTS binding score of 5.
In the case of Cc1ccccc1CSCc1ccc(C(=O)NCc2cccnc2)o1 [Compound 113], the HTS binding score is reported as 4.
N#CC1=C(N)Oc2nc(SCc3ccc(Cl)cc3)nc(N)c2C1c1cccnc1 (stereo not shown) [Compound 158] was tested, and the HTS binding score was 4.
In the case of CC(C)N(CCc1ccncc1)/C(S)=N/C1CCCCC1 [Compound 64], the HTS binding score is reported as 5.
CN1C(=O)c2[nH]nc(-c3ccc(F)cc3)c2C1c1cccnc1 (stereo not shown) [Compound 67] showed an HTS binding score of 5.
With CCO/C(O)=C1/C(C)=NC2=C(C(=O)CC(c3ccccc3)C2)C1c1cccnc1 (stereo not shown) [Compound 136] the HTS binding score was 4.
COc1cccc(C2C(C(=O)Nc3cccnc3)=C(C)Nc3nc(-c4cccs4)nn32)c1 (stereo not shown) [Compound 169] gave an HTS binding score of 4.
Cc1ccc(Cl)cc1-n1ncc2c(NCc3cccnc3)ncnc21 [Compound 112] gave an HTS binding score of 4.
Molecule COC(=O)C1=C(N)Oc2cc(C)oc(=O)c2C1c1cccnc1 (stereo not shown) [Compound 73] has an HTS binding score of 4.
Cc1ccc(NC(=O)C23CC4CC(C2)CC(n2cncn2)(C4)C3)c(C)c1 [Compound 111] gave an HTS binding score of 5.
Molecule Cc1cc(Cl)ccc1OCCCC(=O)NCc1cccnc1 [Compound 77] has an HTS binding score of 4.
Work on COc1cc2c(cc1OC)C(C(=O)N1CCC(Cc3ccccc3)CC1)C(c1cccnc1)N(C)C2=O (stereo not shown) [Compound 185] yielded an HTS binding score of 4.
O=C(CSc1nc(-c2ccc(F)cc2)cc(C(F)(F)F)n1)NCc1ccncc1 [Compound 155] was tested, and the HTS binding score was 4.
COc1cc(OC)cc(-c2cc3nc(C)c(CCC(=O)Nc4cccnc4)c(C)n3n2)c1 [Compound 163] gave an HTS binding score of 4.
Work on CC(C)(C)Nc1c(-c2ccncc2)nc2ccc(Br)cn12 [Compound 105] yielded an HTS binding score of 4.
For COc1cc(NS(=O)(=O)c2ccc(Nc3nc(-c4cccnc4)cs3)cc2)nc(OC)n1 [Compound 177], the HTS binding score was 4.
Work on CCn1c(C(=O)NCc2cccnc2)cc2oc3ccccc3c21 [Compound 79] yielded an HTS binding score of 4.
With O=C(NCc1cccnc1)c1cc2nc(-c3ccco3)cc(C(F)(F)Cl)n2n1 [Compound 143] the HTS binding score was 5.
COc1ccc(C(=O)C(OC(=O)c2ccncc2)c2ccccc2)cc1 (stereo not shown) [Compound 106] showed an HTS binding score of 4.
Molecule CC1=C(C(=O)OC2CCCC2)C(c2ccncc2)C2=C(O)CC(C)(C)CC2=N1 (stereo not shown) [Compound 129] has an HTS binding score of 4.
For COc1ccc(-c2noc(CSc3nnc(-c4ccncc4)n3CC(C)C)n2)cc1OC [Compound 174], the HTS binding score was 4.
N=C(NOC(=O)c1ccc(Br)o1)c1ccncc1 [Compound 69] was tested, and the HTS binding score was 4.
With O=C(NCCCn1ccnc1)c1ccccc1Br [Compound 66] the HTS binding score was 4.
Nc1cc(NC(=O)c2cccc(Cl)c2)cc(Oc2cccnc2)c1 [Compound 100] was tested, and the HTS binding score was 4.
In the case of O=C(NCc1ccncc1)C(Sc1ccccc1)c1ccccc1 (stereo not shown) [Compound 93], the HTS binding score is reported as 4.
C=CCOc1ccc(C2c3c(-c4ccccc4O)n[nH]c3C(=O)N2Cc2ccncc2)cc1OCC (stereo not shown) [Compound 181] showed an HTS binding score of 5.
COc1ccc(NC(=O)Nc2ccc(Cc3ccncc3)cc2)cc1 [Compound 91] was tested, and the HTS binding score was 5.
Work on O=S(=O)(NCc1csc(-c2cccnc2)n1)c1ccc(Br)cc1 [Compound 149] yielded an HTS binding score of 5.
In the case of COc1ccc2nc3oc(C(=O)NCc4cccnc4)cc3cc2c1 [Compound 90], the HTS binding score is reported as 5.
With O=C(NCc1cccnc1)c1ccc(COc2ccccc2Cl)o1 [Compound 103] the HTS binding score was 4.
Molecule O=P(Nc1cccnc1)(Oc1ccccc1Cl)Oc1ccccc1Cl [Compound 138] has an HTS binding score of 5.
Cc1c(C(=O)Nc2ccncc2)sc2nc(-c3ccccc3)cn12 [Compound 92] showed an HTS binding score of 4.
O=C(CSc1nc(-c2cccs2)cc(C(F)(F)F)n1)NCc1ccncc1 [Compound 150] showed an HTS binding score of 4.
COc1ccc(-c2cc(C(=O)NCc3cccnc3)[nH]n2)cc1 [Compound 68] was tested, and the HTS binding score was 4.
With CCCC/N=C(\S)N1CCn2cccc2C1c1cccnc1 (stereo not shown) [Compound 74] the HTS binding score was 4.
In the case of COc1ccc(-c2nc3n(n2)C(c2cccnc2)C2=C(O)CCCC2=N3)cc1 (stereo not shown) [Compound 122], the HTS binding score is reported as 5.
With Cc1ccc(S(=O)(=O)N(CC(=O)Nc2cccnc2)c2cccc(C(F)(F)F)c2)cc1 [Compound 172] the HTS binding score was 4.
Work on Cc1ccc(S(=O)(=O)NCCCOC(=O)Nc2ccncc2)cc1 [Compound 110] yielded an HTS binding score of 5.
Work on COc1ccc(-c2[nH]nc3c2C(c2cccnc2)NC3=O)cc1 (stereo not shown) [Compound 65] yielded an HTS binding score of 4.
With CC1(C)CC(=O)C2=C(C1)c1c(ccc3ccccc13)NC2c1cccnc1 (stereo not shown) [Compound 114] the HTS binding score was 5.
Molecule O=C(/C(=C/c1ccc(F)cc1)n1cncn1)c1ccc(Cl)cc1Cl [Compound 116] has an HTS binding score of 4.
In the case of O=C(NCCc1ccncc1)Nc1ccc(Cl)c(Cl)c1 [Compound 70], the HTS binding score is reported as 4.
Work on CC1=C(C(=O)Nc2ccc(F)cc2F)C(c2cccnc2)C2=C(O)CC(C)(C)CC2=N1 (stereo not shown) [Compound 159] yielded an HTS binding score of 4.
Cn1c(=O)c2c(nc(NCc3cccnc3)n2Cc2cccc3ccccc23)n(C)c1=O [Compound 161] showed an HTS binding score of 4.
N=C(NOC(=O)/C=C/c1ccccc1Cl)c1ccncc1 [Compound 60] showed an HTS binding score of 4.
With Cn1c(SCc2nc(-c3ccc(Cl)cc3)no2)nnc1-c1ccncc1 [Compound 134] the HTS binding score was 5.
Work on Cc1ccc2nc(NC(=O)C3CCN(S(=O)(=O)c4cccnc4)CC3)sc2c1 [Compound 152] yielded an HTS binding score of 4.
C/C(=N\OC(=O)c1c(-c2ccccc2Cl)noc1C)c1ccncc1 [Compound 115] gave an HTS binding score of 5.
Molecule COc1cc(OC)cc(C(=O)Nc2ccc(Cc3ccncc3)cc2)c1 [Compound 108] has an HTS binding score of 4.
O=C(Nc1ccncc1)c1ccc(NS(=O)(=O)c2cccc(Cl)c2)cc1 [Compound 135] was tested, and the HTS binding score was 4.
In the case of O=C(CCCCCN1C(=O)c2cccc3cccc(c23)C1=O)NCc1cccnc1 [Compound 141], the HTS binding score is reported as 4.
Molecule CCOc1cc(S(=O)(=O)Nc2cccnc2)ccc1Cl [Compound 72] has an HTS binding score of 4.
For COc1ccc(-c2nc3n(n2)C(c2cccs2)C(C(=O)Nc2cccnc2)=C(C)N3)cc1 (stereo not shown) [Compound 170], the HTS binding score was 4.
Cc1ccc(S(=O)(=O)N(CC(=O)NCc2cccnc2)c2cccc(Br)c2)cc1 [Compound 180] was tested, and the HTS binding score was 4.
Molecule CCOC(=O)c1cc(-c2ccc(C)cc2)n(CCC(=O)NCc2cccnc2)c1C [Compound 146] has an HTS binding score of 5.
Work on CCCCNC(=O)c1cc(-c2ccncc2)nc2ccccc12 [Compound 63] yielded an HTS binding score of 5.
Work on O=C(c1cc(-c2ccncc2)nc2ccccc12)N1CCCCC1 [Compound 76] yielded an HTS binding score of 5.
With Cc1nnc(NCc2cccnc2)c2c1nnn2Cc1ccc(F)cc1 [Compound 109] the HTS binding score was 5.
Work on O=C(c1ccc(Cl)cc1)C(Oc1ccc(Cl)cc1)n1cncn1 (stereo not shown) [Compound 107] yielded an HTS binding score of 5.
With O=C(CSCc1c(Cl)cccc1Cl)NCc1cccnc1 [Compound 102] the HTS binding score was 4.
C=CCn1c(=O)c(C(=O)NCc2ccncc2)c(O)c2ccccc21 [Compound 94] showed an HTS binding score of 4.
O=S(=O)(c1ccc(-c2csc(-c3cccnc3)n2)cc1)N1CCCC1 [Compound 121] was tested, and the HTS binding score was 4.
CCOC(=O)C1=C(C)N(C)C(C)=C(C(=O)OCC)C1c1ccncc1 [Compound 104] gave an HTS binding score of 5.
In the case of O=C(NCc1cccnc1)c1cc2c(=O)oc3ccccc3c2s1 [Compound 95], the HTS binding score is reported as 5.
COc1ccc(-c2nc(CSCC(=O)NCc3cccnc3)c(C)o2)cc1 [Compound 133] was tested, and the HTS binding score was 4.
CC1=C(C(=O)Nc2ccccc2)C(c2cccnc2)C(C#N)=C(SCC(=O)Nc2ccc(F)cc2)N1 (stereo not shown) [Compound 184] was tested, and the HTS binding score was 5.
O=C(Nc1ccc(F)cc1)c1ccc2c(c1)C(=O)N(Cc1cccnc1)C2=O [Compound 125] showed an HTS binding score of 4.
O=C(CCCSc1nc(-c2ccco2)cc(C(F)(F)F)n1)NCc1ccncc1 [Compound 156] showed an HTS binding score of 4.
Molecule Cc1[nH]c2ccccc2c1C(Nc1ccc(F)cc1)c1ccncc1 (stereo not shown) [Compound 87] has an HTS binding score of 4.
Molecule Cc1c(C(=O)N2CCCCC2c2cccnc2)sc2nc3n(c(=O)c12)CCCCC3 (stereo not shown) [Compound 157] has an HTS binding score of 4.
Molecule O=C(CNCc1cccnc1)Nc1ccc(OC(F)(F)F)cc1 [Compound 82] has an HTS binding score of 4.
In the case of CC1=C(C(=O)Nc2cccnc2)C(c2cccc(O)c2)n2nc(SCc3ccccc3)nc2N1 (stereo not shown) [Compound 179], the HTS binding score is reported as 4.
Molecule COC(=O)c1sccc1NC(=O)CSCCc1ccncc1 [Compound 96] has an HTS binding score of 4.
Work on Cc1coc(NC(=O)c2sc3nc(-c4ccncc4)cc(C(F)(F)F)c3c2N)n1 [Compound 153] yielded an HTS binding score of 4.
O=C(CCc1nc(-c2ccc(Cl)cc2)no1)Nc1cccnc1 [Compound 86] gave an HTS binding score of 4.
COc1ccc(CNc2nc(-c3cccnc3)nn2S(=O)(=O)c2ccccc2)cc1 [Compound 154] was tested, and the HTS binding score was 4.
Molecule CCC(C)(C)c1ccc(OCC(=O)Nc2ccncc2)cc1 [Compound 58] has an HTS binding score of 4.
With O=C1C(c2ccncc2)N(CCC2=CCCCC2)C(=O)CN1C1CCCCC1 (stereo not shown) [Compound 131] the HTS binding score was 4.
CC1=C(C(=O)Nc2cccnc2)C(c2ccc(Cl)cc2)n2nc(CCCO)nc2N1 (stereo not shown) [Compound 160] showed an HTS binding score of 4.
Work on O=C(c1ccncc1)N(Cc1ccccc1)Cc1ccccc1 [Compound 61] yielded an HTS binding score of 4.
Molecule COc1ccc(NC(=O)C2=C(C)Nc3nc(-c4ccccc4)nn3C2c2ccncc2)cc1 (stereo not shown) [Compound 166] has an HTS binding score of 5.
O=C(NCc1cccnc1)/C(=C\c1cccc(Oc2ccccc2)c1)S(=O)(=O)c1ccccc1 [Compound 178] showed an HTS binding score of 4.

Reference: PMC3409115, “Diverse Inhibitor Chemotypes Targeting Trypanosoma cruzi CYP51” (PLoS Neglected Tropical Diseases, 2012)
